The subject of series [1] is synthesis of melanin. The conditions noted are these: reported in the literature; cited from earlier work.
Series [2] has as its system skin. The conditions noted are these: combined in cosmetics; cited from earlier work.
The subject of series [3] is B16 melanoma cells. Description: Melanoma cell depigmenting test (melanin production). The class given is cell-based. The conditions noted are these: 5 days, control as 100%; for activity at 0.01 µg/mL / activity at 0.03 µg/mL / activity at 0.3 µg/mL: Mus musculus, B16, 120 h. How it is done: (Melanoma Cell Depigmenting Test)
Effect of compounds in suppressing melanin pigment synthesis was tested by measuring change in color of B16 melanoma cells when the cells were cultured at a concentration which had no adverse effect on growth of the cells. B16 Melanoma cells (1×10^5) were inoculated on 60 mm petri dishes. After 24 hours, 1,3-bis(2,4-dihydroxyphenyl)propane synthesized in Production Example 3, 1,3-bis(2,4-diacetoxyphenyl)propane synthesized in Production Example 4 and 1,3-bis(2,4-didodecanoyloxyphenyl)propane were added to the each medium, and incubation was curried out for 5 days. After incubation, the cells recovered by trypsin treatment were suspended in 0.3 ml of phosphate buffer and subjected to ultrasonic treatment for cell disruption, 0.3 ml of 4N NaOH was added to the treated suspension and the resultant suspension was incubated at 60° C. for 2 hours. Absorbance was measured at 400 nm and the amount of released melanin was calculated by setting the control as 100%. In Comparative Examples, similar tests were carried out using dihydrophloretin, a hydrochalcone compound, in place of the compounds of the present invention.

`O=C(CCc1ccc(O)cc1)c1c(O)cc(O)cc1O[C@@H]1O[C@H](CO)[C@@H](O)[C@H](O)[C@H]1O` [phlorizin]: the “effect in suppressing the synthesis of melanin” value (“effect … of melanin” for short) in series [1] is reported as “have an effect in suppressing the synthesis of melanin”.

With `Oc1ccc(OCc2ccccc2)cc1` [hydroquinone monobenzyl ether], in series [2], the “lightening of skin darkened with deposited pigment” value is listed as “effectively lightened”; the side effects entry was “side effects such as skin allergies and irritation”.

As for phlorine, in series [1], the “effect … of melanin” value is listed as “have an effect in suppressing the synthesis of melanin”.

Take `CC(=O)Oc1ccc(CCCc2ccc(OC(C)=O)cc2OC(C)=O)c(OC(C)=O)c1` [1,3-bis(2,4-diacetoxyphenyl)propane]: in series [3] (0.01 μg/ml), the activity at 0.01 µg/mL was 44%. Besides, in series [3] (0.03 μg/ml), the activity at 0.03 µg/mL was 18%. The compound further had an activity at 0.3 µg/mL in series [3] (0.30 μg/ml) of 11%.

In turn, `Oc1ccc(CCCc2ccc(O)cc2O)c(O)c1` [1,3-bis(2,4-dihydroxyphenyl)propane] yielded an activity at 0.01 µg/mL in series [3] (0.01 μg/ml) of 31%. This compound also showed an activity at 0.03 µg/mL in series [3] (0.03 μg/ml) of 10%. The same compound gave an activity at 0.3 µg/mL in series [3] (0.30 μg/ml) of 7%.

phlorezin: the “effect … of melanin” value in series [1] was “have an effect in suppressing the synthesis of melanin”.

Take dihydrophloretin: the “Melanin production (%)” value in series [3] (0.01 μg/ml) stood at 92%; in series [3] (0.03 μg/ml), 80%; in series [3] (0.30 μg/ml), 65%. Moreover, the “effect … of melanin” value in series [1] was “have an effect in suppressing the synthesis of melanin”.

Consider `CCCCCCCCCCCC(=O)Oc1ccc(CCCc2ccc(OC(=O)CCCCCCCCCCC)cc2OC(=O)CCCCCCCCCCC)c(OC(=O)CCCCCCCCCCC)c1` [1,3-bis(2,4-didodecanoyloxyphenyl)propane], for which the activity at 0.01 µg/mL in series [3] (0.01 μg/ml) amounted to 28%. The activity at 0.03 µg/mL in series [3] (0.03 μg/ml) was 9%. In series [3] (0.30 μg/ml), this compound showed an activity at 0.3 µg/mL of 7%.
